Values after ≈ are worked out from the molar mass of the structure shown. Read-outs that look alike come from different tables or passages of the source.
Legend:
isolated auricle = test: Cardiac action on the isolated auricle (Trevan preparation): amplitude of contractions; settings: arrows for diminution/increase are drawings, 0 = inactive, read-out: Action on the isolated auricle: minimum concentration producing a variation of 20% in amplitude of contractions
Protocol: (§1) This was examined according to known methods in the isolated auricle (Trevan preparation) and in the isolated heart of a rabbit (Langendorf preparation).
Cardiac action of the compounds in question was evaluated according to the amplitude of contractions of the isolated auricle.

[1] = Toxicity, intravenous in the mouse; settings: in vivo, i.v.
Protocol: The toxicities of the various compound were determined intravenously in the mouse.

[2] = system: isolated heart of the rabbit; test: Cardiac action on the isolated heart of a rabbit (Langendorf preparation); settings: for EC20: Oryctolagus cuniculus, direction arrow is a drawing
Protocol: as §1
In the Langendorf preparation, the action of the compounds was determined from three parameters; the amplitude of contractions, coronary delivery, and rhythm. […] The results are indicated in Table 1; an arrow ↓ indicates a diminution, and an arrow ↑ an augmentation.

anaethestized dog = test: Action on femoral delivery, aortal pressure and cardiac rhythm in the anaesthetized dog; assay type: in vivo; settings: for Aortal pressure, maximum variation in 30 minutes / Cardiac Rhythm, maximum variation in 30 minutes / Femoral Delivery, maximum variation in 30 minutes: i.v. perfusion over 5 min, dose 1/10 of mouse LD50, percent based on initial values; for Aortal pressure (in words) / Cardiac frequency (in words) / Vasodilator action (in words): anaesthetized dog, i.v.; for Vasodilator action (in words): 1/10 of mouse LD50
Protocol: This was investigated in an anaethestized dog, the compounds under test being administered by intraveneous perfusion (over 5 minutes). The various compounds under test were compared by administering all of them at a dose per kilogram corresponding to 1/10 of the mouse LD50 (I.V.).
Simultaneously were measured: variations of femoral delivery, aortal pressure, and cardiac rhythm. Table II indicates the maximum variations of these different parameters observed over the 30 minutes which followed administration of various compounds. These variations are expressed in percent based on the initial values.

[3] = read-out: Amplitude of contractions: concentration producing a variation of 20%
[4] = read-out: Coronary delivery: concentration producing a variation of 20%
[5] = read-out: Rhythm: concentration producing a variation of 20%

Compound | EC20 (isolated auricle) | LD50 [1] | EC20 [2, 3] | Aortal pressure, maximum variation in 30 minutes (anaethestized dog) | Cardiac Rhythm, maximum variation in 30 minutes (anaethestized dog) | EC20 [2, 4] | EC20 [2, 5] | Femoral Delivery, maximum variation in 30 minutes (anaethestized dog) | Coronary delivery (in words) [2] | Aortal pressure (in words) (anaethestized dog) | Cardiac frequency (in words) (anaethestized dog) | Vasodilator action (in words) (anaethestized dog)
CCN(CC)CCOc1ccc(N2C(=O)C=C3CCCCC32)cc1 (centres unmarked) [Example 1, 1-[4-(2-diethylaminoethoxy)-phenyl] -2-oxo-2,4,5,6,7,7a-hexahydro-indole] | 20 µg/mL (≈ 60.9 µM) | 150 mg/kg | 5 µg/mL (≈ 15.2 µM) | 0% | 0% |  |  |  |  |  |  | 
CN(C)CCOc1ccc(N2C(=O)C=C3CCCCC32)cc1 (centres unmarked) [Example 5, 1-[4-(2-Dimethylaminoethoxy)-phenyl]-2-oxo-2,4,5,6,7,7a-hexahydro-indole] | 50 µg/mL (≈ 166 µM) | 90 mg/kg | 1 µg/mL (≈ 3.33 µM) | 0% |  | 20 µg/mL (≈ 66.6 µM) | 10 µg/mL (≈ 33.3 µM) | 0% |  |  |  | 
O=C1C=C2CCCCC2N1c1ccc(OCCN2CCCCC2)cc1 (centres unmarked) [Example 6, 1-[4-(2-Piperidinoethoxy)-phenyl]-2-oxo-2,4,5,6,7,7a-hexahydro-indole] | 10 µg/mL (≈ 29.4 µM) | 40 mg/kg | 1 µg/mL (≈ 2.94 µM) | 0% |  | 20 µg/mL (≈ 58.7 µM) | 20 µg/mL (≈ 58.7 µM) | 0% |  |  |  | 
CC(C)N(CCOc1ccc(N2C(=O)C=C3CCCCC32)cc1)C(C)C (centres unmarked) [Example 7, 1-[4-(2Diisopropylaminoethoxy)-phenyl]-2-oxo-2,4,5,6,7,7a-hexahydro-indole] | 10 µg/mL (≈ 28 µM) | 85 mg/kg | 1 µg/mL (≈ 2.8 µM) | 0% | 0% |  | 20 µg/mL (≈ 56.1 µM) |  |  |  |  | 
CN(C)CCCOc1ccc(N2C(=O)C=C3CCCCC32)cc1 (centres unmarked) [Example 8, 1-[4-(3-Dimethylaminopropoxy)-phenyl]-2-oxo-2,4,5,6,7,7 a-hexahydro-indole] | 10 µg/mL (≈ 31.8 µM) | 85 mg/kg | 1 µg/mL (≈ 3.18 µM) | 0% |  |  | 5 µg/mL (≈ 15.9 µM) |  |  |  |  | 
O=C1C=C2CCCCC2N1c1cccc(OCCN2CCOCC2)c1 (centres unmarked) [Example 9, 1-[3-(2-Morpholinoethoxy)-phenyl]-2-oxo-2,4,5,6,7,7a-hexahydro-indole] | 50 µg/mL (≈ 146 µM) | 170 mg/kg | 1 µg/mL (≈ 2.92 µM) | 0% |  | 20 µg/mL (≈ 58.4 µM) |  |  | augmented |  |  | 
O=C1C=C2CCCCC2N1c1cccc(OCCN2CCCCC2)c1 (centres unmarked) [Example 10, 1-[3-(2-piperidinoethoxy)-phenyl]-2-oxo-2,4,5,6,7,7a-hexahydro-indole] | 5 µg/mL (≈ 14.7 µM) | 130 mg/kg | 1 µg/mL (≈ 2.94 µM) |  |  | 20 µg/mL (≈ 58.7 µM) | 20 µg/mL (≈ 58.7 µM) |  |  | hypotension | tachycardia | vasodilators
CCN(CC)CCOc1cccc(N2C(=O)C=C3CCCCC32)c1 (centres unmarked) [Example 11, 1-[3-(2-Diethylaminoethoxy)-phenyl]-2-oxo-2,4,5,6,7,7a-hexahydro-indole] | 10 µg/mL (≈ 30.4 µM) | 90 mg/kg | 2 µg/mL (≈ 6.09 µM) | 0% |  |  | 10 µg/mL (≈ 30.4 µM) |  |  | without modifying aortal pressure | without modifying aortal pressure or cardiac frequency | clearly vasodilators
CN(C)CCOc1cccc(N2C(=O)C=C3CCCCC32)c1 (centres unmarked) [Example 12, 1-[3-(2-Dimethylaminoethoxy)-phenyl]-2-oxo-2,4,5,6,7,7a-hexahydro-indole] | 10 µg/mL (≈ 33.3 µM) | 27.5 mg/kg | 1 µg/mL (≈ 3.33 µM) |  |  |  | 5 µg/mL (≈ 16.6 µM) |  |  | hypotension | tachycardia | vasodilators
CC(C)N(CCOc1cccc(N2C(=O)C=C3CCCCC32)c1)C(C)C (centres unmarked) [Example 13, 1-[3-(2-Diisopropylaminoethoxy)-phenyl]-2-oxo-2,4,5,6,7,7a-hexahydro-indole] | 5 µg/mL (≈ 14 µM) | 55 mg/kg | 1 µg/mL (≈ 2.8 µM) |  |  |  | 20 µg/mL (≈ 56.1 µM) |  |  | hypertensives |  | 
O=C1C=C2CCCCC2N1c1ccc(OCCN2CCCCC2)c(Cl)c1 (centres unmarked) [Example 14, 1-[3-chloro-4-(2-piperidinoethoxy)-phenyl]-2-oxo-2,4,5,6,7,7a-hexahydro-indole] | 10 µg/mL (≈ 26.7 µM) | 25 mg/kg | 1 µg/mL (≈ 2.67 µM) | 0% |  |  | 20 µg/mL (≈ 53.3 µM) |  |  | without modifying aortal pressure | without modifying aortal pressure or cardiac frequency | clearly vasodilators
CCN(CC)CCOc1ccc(N2C(=O)C=C3CCCCC32)cc1Cl (centres unmarked) [Example 16, 1-[3-Chloro-4-(2-diethylaminoethoxy)-phenyl]-2-oxo-2,4,5,6,7,7a-hexahydro-indole] | 5 µg/mL (≈ 13.8 µM) | 22 mg/kg | 1 µg/mL (≈ 2.76 µM) | 0% |  |  | 1 µg/mL (≈ 2.76 µM) |  |  |  |  | 
O=C1C=C2CCCCC2N1c1ccc(OCCN2CCOCC2)c(Cl)c1 (centres unmarked) [Example 17, 1-[3-Chloro-4-(2-morpholinoethoxy)-phenyl]-2-oxo-2,4,5,6,7,7a-hexahydro-indole] |  | 120 mg/kg | 1 µg/mL (≈ 2.65 µM) | 0% |  | 50 µg/mL (≈ 133 µM) | 20 µg/mL (≈ 53.1 µM) |  | augmented |  |  | 
CC(C)N(CCOc1ccc(N2C(=O)C=C3CCCCC32)cc1Cl)C(C)C (centres unmarked) [Example 18, 1-[3-Chloro-4-(2-diisopropylaminoethoxy)-phenyl]-2-oxo-2,4,5,6,7,7a-hexahydro-indole] | 5 µg/mL (≈ 12.8 µM) | 150 mg/kg | 1 µg/mL (≈ 2.56 µM) |  |  |  |  |  |  | hypertensives |  | 
CN(C)CCOc1ccc(N2C(=O)C(c3ccccc3)=C3CCCCC32)cc1 (centres unmarked) [Example 19, 1-[4-(2-Dimethylaminoethoxy)-phenyl]-2-oxo-3-phenyl-2,4,5,6,7,7a-hexahydro-indole] | 20 µg/mL (≈ 53.1 µM) | 10 mg/kg | 1 µg/mL (≈ 2.66 µM) |  |  | 5 µg/mL (≈ 13.3 µM) | 10 µg/mL (≈ 26.6 µM) | 0% | augmented |  |  | 
CCN(CC)CCOc1ccc(N2C(=O)C(c3ccccc3)=C3CCCCC32)cc1 (centres unmarked) [Example 20, 1-[4-(2-diethylaminoethoxy)-phenyl]-2-oxo-3-phenyl-2,4,5,6,7,7a-hexahydro-indole] | 2 µg/mL (≈ 4.94 µM) | 38 mg/kg | 1 µg/mL (≈ 2.47 µM) | 0% |  | 5 µg/mL (≈ 12.4 µM) | 5 µg/mL (≈ 12.4 µM) | 0% | augmented |  |  | 
O=C1C(c2ccccc2)=C2CCCCC2N1c1ccc(OCCN2CCOCC2)cc1 (centres unmarked) [Example 21, 1-[4-(2-morpholinoethoxy)-phenyl]-2-oxo-3-phenyl-2,4,5,6,7,7a-hexahydro-indole] | 20 µg/mL (≈ 47.8 µM) | 55 mg/kg | 1 µg/mL (≈ 2.39 µM) | 0% | 0% | 2 µg/mL (≈ 4.78 µM) | 10 µg/mL (≈ 23.9 µM) |  | augmented |  |  | 
